The source of these data is patent US4603209A, “Fluorescent indicator dyes for calcium ions” (priority 1984, dated 1986).

For series [1] the following is noted: cited from earlier work.
The conditions of series [2]: read-out: apparent dissociation constant for Mg-EGTA, cited from earlier work.
The format of series [3] is binding. As to the method:
(§1) Calcium and magnesium affinities of EGTA at high ionic strength were measured by titrating 125 micromole portions of EGTA (Fluka Chemical, puriss grade) with 1.00M KOH (J.T. Baker, low in carbonate). The EGTA was dissolved in 25 ml medium containing 225 mM KCl, 25 mM NaCl, and in some runs 10 mM CaCl2 or 21 mM MgCl2. This solution was stirred in a Radiometer TTA80 Titrator, bubbled continuously with nitrogen, and thermostatted at 18° C. while KOH was added in 0.005 or 0.01 ml aliquots from a ABU80autoburet. The pH was measured with a PHM84 meter, a G2040C electrode and an Ag/AgCl reference electrode connected to the titration solution by a long length of 0.01 inch catheter tubing filled with 3M KCl; this electrode chain was calibrated with phthalate (4.001), phosphate (6.889), and borax (9.245) buffers made according to National Bureau of Standards recipes. The fifty to eighty pH readings in each titration were analyzed by the FORTRAN program SCOGS of Sayce (see reference 36). The resulting proton ionization constants for EGTA were 9.537 and 8.961 with computed uncertainties of ±0.012 and ±0.008 respectively. […] At this ionic strength and any pH>4, the effective stability constant K'Ca may be calculated as (antilog 10.77)·[1 +antilog (3.51-pH)]/[1+antilog (9.537-pH)+antilog (9.537+8.961-2·pH)]in units of liters/mole. […]

For series [4] the following is noted: reference 11; cited from earlier work.
For series [5] the following is noted: calculated from tables of Martell & Smith, read-out: apparent dissociation constant for Ca-EGTA, cited from earlier work.
The format of series [6] is binding. On the procedure: as §1
This is another data set of the same source.

For series [7] the following is noted: reference 11; cited from earlier work. The source holds these as a separate data set.
Series [8] can be described thus: Mg2+ titration of dye excitation spectrum in Mg-EGTA buffers. Format: binding. The note with it: 0.1-0.15M ionic strength, read-out: Mg^2+ dissociation constant. As to the method:
An excitation spectrum was recorded of 2 microM fura-2 in 2.5 ml 32 mM KCl, 1 mM EGTA, 10 mM MOPS, adjusted with KOH to pH 7.18 while thermostatted at 20° C. Then 25 microliters of this solution was discarded and replaced by 25 microliters of a solution containing 2 microM fura-2, 104.8 mM MgCl2, 5.8 mM EGTA, 10 mM MOPS, adjusted with KOH to pH 7.18. Since both stocks had 1 mM free EGTA but the latter had 100 mM free Mg, the 99:1 v/v composite went to 1.0 mM free Mg^2+. Further iterations attained 2, 5, 10, and 20 mM free Mg^2+ by successively discarding 25.25, 76.53, 131.6, and 277.8 microliters of the mixture and replacing each with an equal volume of the high-Mg stock. Emission was collected at 510 nm, 4.6 nm bandpass, and excitation 0.9 nm bandpass.
Free [Mg^2+ ] was likewise controlled by Mg-EGTA buffers assuming an apparent dissociation constant for Mg-EGTA of 21 mM at pH 7.18 in 130 mM KCl at 20°, 8.96 mM at pH 7.05 in 130 mM KCl, 20 mM NaCl at 37°, and 99 mM at pH 7.02 in 225 mM KCl, 25 mM NaCl at 18°. Again, the last value was freshly determined in this study.
Binding constants for competing cations were most thoroughly explored for fura-2. […] Therefore fura-2 binds Mg^2+ less strongly than does quin2, whose Mg^2+ dissociation constants are about 1 mM and 2 mM respectively at 37° and ca. 22° (see references 6 and 7). […]

A short description of series [9]: Zn2+ titration of dye fluorescence in Zn-EGTA buffer, Hill plots. Format: binding. On the procedure: Heavy metal binding constants were measured as follows. Affinities of stil-1 and fura-2 for Zn^2+ were measured by titrating 1-2 microM dye in 120 mM KCl, 5 mM K2 H2 EGTA, 10 mM MOPS, 5 mM Tris, with 1M ZnCl2 dispensed from a micrometer syringe. […] (see reference 11).
Binding of fura-2 to some of the physiologically more important heavy divalent metals was also briefly examined. Both stil-1 and fura-2 bind zinc with dissociation constants around 1.6-2 nM (pKZn 8.6-8.8). […] Curiously Zn^2+ shifts the fura-2 spectrum the same way that Ca^2+ does, whereas Zn^2+ quenches quin2 and therefore acts oppositely to Ca^2+. Fura-2 is also better than quin2 in rejecting Mn^2+, the Mn^2+ :Ca^2+ preferences being 42-fold and 510-fold respectively (see reference 26). […] A more precise estimate was prevented by experimental scatter, which may reflect more complicated stoichiometry than 1:1 or imperfectly anaerobic conditions. Both Mn^2+ and Fe^2+ quench fura-2 as expected for metals with many unpaired electrons. For comparison, EGTA prefers Zn^2+, Mn^2+, and Fe^2+ to Ca^2+, by factors of ca. 50, ca. 20, and ca. 8-fold respectively (see reference 11).

Series [10] is described as follows: Direct competition between Fe2+ and Ca2+, quenching of dye fluorescence. Format: binding. The note with it: 100 mM KCl, 10 mM KMOPS, pH 7.2, under nitrogen. As to the method: (§2) Since Mn^2+ and Fe^2+ quench fura-2, the affinities for these ions relative to Ca^2+ could be assessed by direct competition between the metal ions each in stoichiometric excess. […] Fluorescences of 0.5 microM fura-2 at room temperature were recorded in solutions containing 100 mM KCl, 10 mM KMOPS, pH 7.2. One series also contained 0, 0.1, or 1 mM MnSO4 and 0, 1.1, 2.2, 4.4, or 8.8 mM CaCl2; another series had 2 mM CaCl2 and 0, 0.1, 0.2, 0.5, 1, 2 mM Fe(NH4)2 (SO4)2; and a third series with 0.2 mM Fe(NH4)2 (SO4)2 and 0, 0.2, 0.4, 0.8, 2, 4, and 8 mM CaCl2. Measurements with Fe(II) were made in a cuvet sealed by a septum and continually bubbled with nitrogen; the solutions stayed clear and nearly colorless until the septum was removed after the end of the experiment, whereupon deposition of yellow Fe(OH)3 followed rapidly.
(§3) Binding of fura-2 to some of the physiologically more important heavy divalent metals was also briefly examined. Both stil-1 and fura-2 bind zinc with dissociation constants around 1.6-2 nM (pKZn 8.6-8.8). […] Curiously Zn^2+ shifts the fura-2 spectrum the same way that Ca^2+ does, whereas Zn^2+ quenches quin2 and therefore acts oppositely to Ca^2+. Fura-2 is also better than quin2 in rejecting Mn^2+, the Mn^2+ :Ca^2+ preferences being 42-fold and 510-fold respectively (see reference 26). […]

A short description of series [11]: Direct competition between Mn2+ and Ca2+, quenching of dye fluorescence. In kind it is binding. The conditions noted are these: 100 mM KCl, 10 mM KMOPS, pH 7.2, room temperature. On the procedure: as §2, §3

The structures appear in SMILES notation. Like-named read-outs stand apart in the source and are kept apart here.

As to `O=C(O)CN(CCOCCOCCN(CC(=O)O)CC(=O)O)CC(=O)O` [EGTA, ethylene glycol bis(beta-aminoethyl ether)-N,N,N',N'-tetracetic acid], the Kd was 0.00427 µM in series [1] (pH 7.11, reference 11, read-out: effective dissociation constant of EGTA for Zn^2+); 8960 µM in series [2] (pH 7.05 in 130 mM KCl, 20 mM NaCl at 37°); 21000 µM in [2] (pH 7.18 in 130 mM KCl at 20°); 0.49 µM in [3] (pH 7.02 in 225 mM KCl, 25 mM NaCl at 18° C., freshly determined, read-out: apparent dissociation constant for Ca-EGTA); 0.38 µM in series [5] (pH 7.00 in 0.1M KCl, 20° C.); 0.214 µM in series [5] (pH 7.05 in 130 mM KCl, 20 mM NaCl at 37° C.). The Kd in series [5] (pH 7.20 in 0.1M KCl, 20° C.) is 0.151 µM; in series [6] (pH 7.02 in 225 mM KCl, 25 mM NaCl at 18°, freshly determined, read-out: apparent dissociation constant for Mg-EGTA), 99000 µM. The “preference for Zn^2+ over Ca^2+” value in series [1] (reference 11) is reported as “ca. 50 fold”. In addition, the “proton pKa for Ca.EGTA” value in series [3] (225 mm kcl, 25 mm nacl) is 3.51±0.49. For the same compound, the “preference for Mn^2+ over Ca^2+” value in series [4] is recorded as “ca. 20 fold”. In series [6] (225 mm kcl, 25 mm nacl), the “proton pKa for Mg.EGTA” value is on record as 7.885±0.05. Moreover, the “preference for Fe^2+ over Ca^2+” value in [7] was “ca. 8 fold”.
As for `Cc1ccc(N(CC(=O)O)CC(=O)O)c(OCCOc2cc3cc(-c4ncc(C(=O)O)o4)oc3cc2N(CC(=O)O)CC(=O)O)c1` [fura-2, 1-(2-(5'-carboxyoxazol-2'-yl)-6-aminobenzofuran-5-oxy)-2-(2'-amino-5'-methylphenoxy)ethane-N,N,N',N'-tetraacetic acid], the Kd in [8] (20°) was approximately 9800 µM; in [8] (37° C.) it was approximately 5600 µM; in [9] (120 mM KCl, pH 7.12, room temperature, read-out: dissociation constant for zinc), 0.0016 to 0.002 µM. Also, the “Zn^2+:Ca^2+ preference” value in [9] is listed as “two orders of magnitude”. Besides, in series [9] (120 mM KCl, pH 7.12, room temperature), the pKZn is 8.6-8.8. Further, in series [10], the “Fe^2+ binding strength relative to Ca^2+” value was “between three and ten time”. The “Mn^2+:Ca^2+ preference” value in [11] was 42 fold.
